From PMC5577610, “Nine New Triterpene Glycosides, Magnumosides A1–A4, B1, B2, C1, C2 and C4, from the Vietnamese Sea Cucumber Neothyonidium (=Massinium) magnum: Structures and Activities against Tumor Cells Independently and in Synergy with Radioactive Irradiation” (Marine Drugs, 2017)

Tests used:
[1] = test system: Lewis lung carcinoma cell xenograft tumor; parameters: method as in PMID 25738799; conditions: C57BL/6 mice bearing a Lewis lung carcinoma cell xenograft tumor; cited from earlier work
[2] = test system: human lung carcinoma H1299 cells; parameters: method as in PMID 25738799; conditions: cited from earlier work
[3] = test system: human lung carcinoma A549 cells; parameters: method as in PMID 25738799; conditions: cited from earlier work
[4] = test system: mouse erythrocytes; type: cell-based; conditions: CD-1 mouse erythrocytes, 1 h at 37 °C; dose causing 50% of hemolysis
Procedure: The erythrocytes were washed thrice with 0.9% NaCl, centrifuged (450 g) on a centrifuge […] (Heraeus, Hanau, Germany) for 5 min followed by re-suspending in phosphate-buffered saline (PBS), pH 7.2-7.4. […] ED50 was calculated using SigmaPlot 3.02 software (Jandel Scientific, San Rafael, CA, USA). […] The erythrocyte suspension in phosphate-buffered saline, pH 7.2-7.4 (PBS) with 20 μL of the solvent without a tested compound was used as negative control.

[5] = test system: ascites form of mouse Ehrlich carcinoma cells; assay: Cytotoxic activity (MTT) against the ascites form of mouse Ehrlich carcinoma cells; type: cell-based; conditions: ascites form of mouse Ehrlich carcinoma cells, MTT, incubated over night
Procedure: (§1) The spleenocytes from CD-1 line mice were used. The spleen was isolated from mice and homogenized. The spleenocytes were washed thrice and resuspended with RPMI-1640 medium contained gentamicine 8 μg/mL (Biolot, Saint Petersburg, Russia). The museum tetraploid strain of murine ascites Ehrlich carcinoma cells from the All-Russian cancer center RAMS (Moscow, Russia) was used. The cells of the ascites Ehrlich carcinoma were separated from ascites, which were collected on day 7 after inoculation in mouse CD-1 line. The cells were washed of ascites thrice and then resuspended in liquid media DMEM with L-Glutamine (Biolot, Saint Petersburg, Russia).
(§2) The solutions of tested substances in different concentrations (20 µL) and cell suspension (200 µL) were added in wells of 96-well plate and incubated over night at 37 °C and 5% CO2. After incubation the cells were sedimented by centrifugation, 200 µL of medium from each well were collected and 100 µL of pure medium were added. Then 10 µL of MTT solution […] (Sigma, St. Louis, MO, USA) were added in each well. Plate was incubated 4 h, after that 100 µL SDS-HCl were added to each well and plate was incubated at 37 °C 4–18 h. Optical density was measured at 570 nm and 630–690 nm. The activity of the substances was calculated as the ratio of the dead cells to general cells amount (ED50). Typicoside A1 [28] and cucumarioside A2-2 [11] were used as positive controls.

[6] = test system: mouse spleenocytes; assay: Cytotoxic activity (MTT) against mouse spleenocytes; type: cell-based; conditions: CD-1 mouse spleenocytes, MTT, incubated over night
Procedure: as §1, §2

SMILES | Efficacy of radiation therapy (in words) [1] | Sensitization to γ-radiation (in words) [2] | Sensitization to γ-radiation (in words) [3] | Hemolytic Activity, ED50 [4] [μM/mL] | IC50 [5] [µM] | IC50 [6] [µM]
CC(C)=CCC[C@](C)(O)[C@H]1CC[C@]2(C)[C@@H]1[C@H](O)C[C@@H]1[C@@]3(C)CC[C@H](O[C@@H]4O[C@H](CO)[C@@H](O)[C@H](O)[C@H]4O[C@@H]4O[C@H](CO)[C@@H](O)[C@H](O)[C@H]4O)C(C)(C)[C@@H]3CC[C@]12C [ginsenoside Rg3] | significantly enhanced the efficacy of radiation therapy | sensitized | sensitized | – | – | –
C=C(C)CCCC1(C)OC(=O)C23CCC4C(=CCC5C(C)(C)C(OC6OCC(OS(=O)(=O)[O-])C(O)C6OC6OC(C)C(OC7OC(CO)C(O)C(OC8OC(CO)C(O)C(OC)C8O)C7O)C(O)C6OC6OCC(O)C(O)C6O)CCC45C)C2(C)CC(=O)C13.[Na+] (stereo not drawn) [Cucumarioside A2-2, reference compound] | – | – | – | 0.82 ± 0.02 | 1.39 ± 0.015 | 1.21 ± 0.02
